Assay results: US11034742B2, “Peptides with antibiotic potential against Mycobacterium tuberculosis” (LINNANE PHARMA AB, priority 2017, dated 2021)
In brackets after ≈: the same amount, converted by molar mass. Positions of bridges follow the written chain, without caps; N, C: chain ends. Residues, ends and D or L forms follow the SMILES beside them.

System: M. tuberculosis

Structure (SMILES) | MIC (mg/L) | MIC (μM) [µM] | mean concentration inhibiting 99% of bacterial growth [µM]
CC[C@H](C)[C@@H]1NC(=O)[C@H](CO)NC(=O)[C@H](CCCCN)NC(=O)[C@@H]2CSSC[C@@H](C(=O)N[C@@H](Cc3ccc(O)cc3)C(=O)O)NC(=O)[C@H](CCCCN)NC(=O)[C@@H]3CSSC[C@H](NC(=O)[C@H](CCC(N)=O)NC(=O)[C@H]([C@@H](C)CC)NC(=O)[C@H](CC(=O)O)NC(=O)[C@H](CC(=O)O)NC(=O)[C@H](CCC(=O)O)NC(=O)[C@H](CO)NC(=O)[C@H](Cc4c[nH]c5ccccc45)NC(=O)[C@@H]4CCCN4C(=O)CNC(=O)[C@H](CC(N)=O)NC(=O)[C@@H](NC(=O)CNC(=O)[C@H](Cc4ccccc4)NC(=O)CN)CSSC[C@H](NC(=O)[C@H](Cc4ccc(O)cc4)NC(=O)CNC(=O)CNC(=O)[C@H](CCCCN)NC(=O)[C@H](Cc4ccc(O)cc4)NC(=O)CNC(=O)[C@H](CCCCN)NC1=O)C(=O)N[C@@H](C)C(=O)N[C@@H](CCCNC(=N)N)C(=O)NCC(=O)NCC(=O)N[C@@H](Cc1ccccc1)C(=O)N[C@@H](C(C)C)C(=O)N3)C(=O)N[C@@H](Cc1c[nH]cn1)C(=O)N[C@@H](CC(N)=O)C(=O)N[C@@H](Cc1c[nH]cn1)C(=O)N2 [SEQ ID NO: 3] (H-GFGCNGPWSEDDIQCHNHCKSIKGYKGGYCARGGFVCKCY-OH; disulfide 4-30, 15-37, 19-39 (inferred); N-terminus and C-terminus assumed) | 27.5 (≈ 6.27 µM) | 6.8 (≈ 29.8 µg/mL) | 6.3
CC[C@H](C)[C@@H]1NC(=O)[C@H](C)NC(=O)[C@@H]2CSSC[C@H](NC(=O)CNC(=O)[C@H](Cc3ccccc3)NC(=O)CN)C(=O)N[C@@H](CC(N)=O)C(=O)NCC(=O)N3CCC[C@H]3C(=O)N[C@@H](Cc3c[nH]c4ccccc34)C(=O)N[C@@H](CO)C(=O)N[C@@H](CCC(=O)O)C(=O)N[C@@H](CC(=O)O)C(=O)N[C@@H](CC(=O)O)C(=O)N[C@@H]([C@@H](C)CC)C(=O)N[C@@H](CCC(N)=O)C(=O)N[C@H]3CSSC[C@H](NC(=O)[C@H](C(C)C)NC(=O)[C@H](Cc4ccccc4)NC(=O)CNC(=O)CNC1=O)C(=O)N[C@@H](CCCCN)C(=O)N[C@H](C(=O)N[C@@H](Cc1ccc(O)cc1)C(=O)O)CSSC[C@H](NC(=O)[C@H](Cc1c[nH]cn1)NC(=O)[C@H](CC(N)=O)NC(=O)[C@H](Cc1c[nH]cn1)NC3=O)C(=O)N[C@@H](CCCCN)C(=O)N[C@@H](CO)C(=O)N[C@@H]([C@@H](C)CC)C(=O)N[C@@H](CCCCN)C(=O)NCC(=O)N[C@@H](Cc1ccc(O)cc1)C(=O)N[C@@H](CCCCN)C(=O)NCC(=O)NCC(=O)N[C@@H](Cc1ccc(O)cc1)C(=O)N2 [SEQ ID NO: 4] (H-GFGCNGPWSEDDIQCHNHCKSIKGYKGGYCAIGGFVCKCY-OH; disulfide 4-30, 15-37, 19-39 (inferred); N-terminus and C-terminus assumed) | – | – | 6.3
